Publication PMC7238409, “Interactions of TiO2 Nanoparticles with Ingredients from Modern Lifestyle Products and Their Effects on Human Skin Cells” (Chemical Research in Toxicology, 2020)
Like-named read-outs stand apart in the source and are kept apart here.

Experiments:
nNHDF cells [1] = experiment: Reactive oxygen species assay (DCFDA) with side scatter signal (SSC), flow cytometry; details: concentrations of Table 1, with or without 100 μg/mL TiO2 NPs; H2O2 100 μM
[2] = Nanoparticle tracking analysis (NTA) of TiO2 NPs after incubation with MLP ingredients; format: physicochemical; details: 0.1 mg/mL TiO2 NPs + 0.1 mg/mL MLP ingredient, 60 min, diluted 1:100 in water
nNHDF cells [3] = experiment: Annexin V/Propidiumiodide apoptosis/necrosis assay, flow cytometry; format: cell-based, human
nNHDF cells [4] = experiment: Neutral Red Uptake (NRU) assay, lysosomal integrity; format: cell-based, human; details: 24 h, absence of TiO2 NPs (control)
nNHDF cells [5] = experiment: CellTiter-Blue (CTB) assay, metabolic activity; details: 24 h
nNHDF cells [6] = experiment: Glutathione assay (total glutathione and GSSG, Tietze method); format: cell-based, human; details: 4 h, concentrations of Table 1, absence of TiO2 NPs
Experimental: Intracellular total and oxidized glutathione was determined by the earlier published Tietze method,[33] which was adapted to microtiter plates. Briefly, cells were lysed in 200 μL of 1% (w/v) sulfosalicylic acid (SSA), and 10 μL of the lysates were diluted with 90 μL of H2O and subsequently mixed with 100 μL of a reaction mixture containing 0.3 mM DTNB, 0.4 mM NADPH, 1 mM EDTA, and 1 U/mL glutathione reductase in 0.1 mM sodium phosphate buffer, pH = 7.5. The absorbance at 405 nm was continuously recorded over a time frame of 10 min. Glutathione concentrations were determined by comparing the increase in absorption of samples with the increase in absorption of standards with known concentrations. In order to determine the amount of oxidized glutathione (glutathione disulfide, GSSG), the samples were pretreated with 2-vinylpyridine (2-VP). The sample (cell lysate in SSA, 130 μL) was mixed with 5 μL of 2-VP, and the pH was subsequently adjusted to 6 using 0.2 M Tris-solution. Samples were incubated at room temperature for 60 min, and then 10 μL of the samples were assayed for glutathione, as described above.
Cellular protein contents were determined after lysis of the cells in 200 μL of 0.5 M NaOH according to the Lowry method[34] using bovine serum albumin as a standard.

[7] = read-out: EC50, metabolic activity, control, nNHDF cells, absence of TiO2 NPs (control)

Compound	# of particles (TiO2 NPs detectable) [2]	particle diameter of TiO2 NPs, D50 [2] [nm]	particle diameter of TiO2 NPs, mean [2] [nm]	particle diameter of TiO2 NPs, mode [2] [nm]	DCFDA signal (ROS) (nNHDF cells [1])	quadrant number lower left (viable cells), PI / Annexin V plot (nNHDF cells [3])	quadrant number lower right, PI / Annexin V plot (nNHDF cells [3])	quadrant number upper left, PI / Annexin V plot (nNHDF cells [3])	quadrant number upper right, PI / Annexin V plot (nNHDF cells [3])	EC50 (nNHDF cells [4]) [µM]	other results
CCCCOC(=O)c1ccc(O)cc1 [BP, butyl parabene]	748 ± 137 × 10^6	122 ± 12	136 ± 18	111 ± 19	–	92.9	3.13	2.57	1.38	690 ± 420	amount of viable cells (nNHDF cells [3]): 79.8%
Nc1ccc(N)cc1 [PPD, para-phenylenediamine]	1833 ± 93 × 10^6	129 ± 17	138 ± 19	122 ± 14	decreased the amount of detectable ROS significantly	–	–	–	–	1360 ± 50	EC50 (nNHDF cells [5]; read-out: EC50 (cytotoxicity, end point not given), nNHDF cells, discussion): ~1000 µM; EC50 (nNHDF cells [5]; [7]): 1190 ± 170 µM; PI fluorescence (necrosis) compared to the control (nNHDF cells [3]; 24 h, concentrations of Table 1, together with 100 μg/mL TiO2 NPs): significant difference in PI fluorescence
CCOC(=O)c1ccc(O)cc1 [EP, ethyl parabene]	764 ± 92 × 10^6	122 ± 2	132 ± 5	105 ± 8	–	90.0	6.57	1.97	1.47	3540 ± 860	–
OO [H2O2, Hydrogen peroxide, reference compound]	–	–	–	–	slight but significant increase in the DCFDA signal	–	–	–	–	–	total cellular glutathione content (nNHDF cells [6]): lowered significantly

Continued, in another order:

# of particles (TiO2 NPs detectable) [2]	particle diameter of TiO2 NPs, D50 [2] [nm]	particle diameter of TiO2 NPs, mean [2] [nm]	particle diameter of TiO2 NPs, mode [2] [nm]	Compound	DCFDA signal (ROS) (nNHDF cells [1])	quadrant number lower left (viable cells), PI / Annexin V plot (nNHDF cells [3])	quadrant number lower right, PI / Annexin V plot (nNHDF cells [3])	quadrant number upper left, PI / Annexin V plot (nNHDF cells [3])	quadrant number upper right, PI / Annexin V plot (nNHDF cells [3])	EC50 (nNHDF cells [4]) [µM]	other results
498 ± 380 × 10^6	141 ± 20	154 ± 14	117 ± 18	O=C1C=C(O)C(=O)c2ccccc21 [HNQ, 2-hydroxy-1,4-naphtoquinone]	decreased the amount of detectable ROS significantly	89.5	4.56	3.31	2.61	–	–
612 ± 210 × 10^6	119 ± 2	126 ± 1	103 ± 5	CCCOC(=O)c1ccc(O)cc1 [PP, propyl parabene]	–	91.2	4.55	2.46	1.77	1270 ± 340	EC50 (nNHDF cells [5]; [7]): 1040 ± 20 µM; total cellular glutathione content (nNHDF cells [6]): significantly lower total cellular glutathione content
927 ± 146 × 10^6	122 ± 1	131 ± 2	106 ± 5	COC(=O)c1ccc(O)cc1 [MP, methyl parabene]	–	–	6.31	2.69	1.42	–	–
552 ± 248 × 10^6	127 ± 6	136 ± 5	117 ± 11	CC(C=O)Cc1ccc(C(C)(C)C)cc1 (stereo not shown) [Lilial, 3-(4-tert-butylphenyl)-2-methylpropanal]	–	–	–	–	–	–	EC50 (nNHDF cells [5]; Homo sapiens, read-out: EC50, metabolic activity, control): 230 ± 50 µM; EC50 (nNHDF cells [4]; Homo sapiens): 270 ± 70 µM; quadrant number lower left (viable cells), PI / Annexin V plot (nNHDF cells [3]; human, 24 h): 94.2; quadrant number lower right, PI / Annexin V plot (nNHDF cells [3]; human, 24 h): 1.60; quadrant number upper left, PI / Annexin V plot (nNHDF cells [3]; human, 24 h): 3.26; quadrant number upper right, PI / Annexin V plot (nNHDF cells [3]; human, 24 h): 0.94
